Usually Ki stands for a measure of affinity in units of concentration, obtained from inhibition or displacement. Lower therefore signals a stronger hold on the target.

The record followed here is ChEMBL document CHEMBL3217715, “Are pyridazines privileged structures?” (Medchemcomm, 2011).

The assay addresses D(2) dopamine receptor (Homo sapiens, UniProt P14416). The experiment in a line: Antagonist activity at dopamine D2 receptor (unknown origin).

Sequence of D(2) dopamine receptor (P14416 whole entry): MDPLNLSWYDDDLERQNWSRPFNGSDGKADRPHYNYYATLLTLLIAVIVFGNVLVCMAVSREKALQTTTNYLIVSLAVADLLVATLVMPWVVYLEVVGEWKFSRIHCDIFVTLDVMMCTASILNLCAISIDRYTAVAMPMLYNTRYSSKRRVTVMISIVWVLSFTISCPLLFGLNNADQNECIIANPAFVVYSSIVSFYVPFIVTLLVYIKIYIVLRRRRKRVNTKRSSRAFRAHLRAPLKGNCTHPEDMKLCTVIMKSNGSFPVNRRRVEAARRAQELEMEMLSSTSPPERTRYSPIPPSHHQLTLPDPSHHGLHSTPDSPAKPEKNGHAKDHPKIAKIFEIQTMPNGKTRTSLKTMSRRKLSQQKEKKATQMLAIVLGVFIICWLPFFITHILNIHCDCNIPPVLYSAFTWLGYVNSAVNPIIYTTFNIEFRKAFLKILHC

`CCN1CCCC1CNc1nncc2ccc(OC)c(OC)c12` (stereo unspecified) gave a Ki of 3.9 nM.
